We go through four compounds from article PMC9544171, “Glucose‐dependent insulinotropic polypeptide receptor antagonist treatment causes a reduction in weight gain in ovariectomised high fat diet‐fed mice” (British Journal of Pharmacology, 2022).

pIC50: −log10 of the molar value. Where no end group is shown, it is not given here.

In experiment [1] the target is T1, mouse GIP receptor (Mus musculus, UniProt Q0P543).
T1 construct: host or cells: COS-7
T1 sequence (Q0P543 19-460): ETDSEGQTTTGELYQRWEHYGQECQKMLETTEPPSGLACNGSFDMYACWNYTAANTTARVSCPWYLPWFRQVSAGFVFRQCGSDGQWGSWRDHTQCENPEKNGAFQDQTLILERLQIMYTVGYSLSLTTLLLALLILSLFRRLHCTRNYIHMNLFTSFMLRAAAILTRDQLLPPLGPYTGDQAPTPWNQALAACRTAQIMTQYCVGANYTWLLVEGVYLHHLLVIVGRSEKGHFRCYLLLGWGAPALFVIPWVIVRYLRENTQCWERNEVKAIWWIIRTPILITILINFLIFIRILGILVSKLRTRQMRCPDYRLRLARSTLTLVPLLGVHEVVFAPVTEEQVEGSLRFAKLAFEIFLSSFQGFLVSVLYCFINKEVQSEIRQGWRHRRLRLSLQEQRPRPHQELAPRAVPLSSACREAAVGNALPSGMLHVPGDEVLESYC
In words: cAMP accumulation, agonism (intrinsic activity) in transfected COS‐7 cells. It counts as cell-based. The conditions noted are these: increasing concentrations of ligand alone, 30 min, COS‐7, n = 5. On the procedure:
(§1) COS‐7 cells were cultured at 10% CO2 and 37°C in Dulbecco's Modified Eagle Medium 1885 supplemented with 10% foetal bovine serum, 2‐mM glutamine, 180‐units ml^−1 penicillin and […] streptomycin. Transient transfection of the cells with either human or mouse GIP receptor was performed using the calcium phosphate precipitation method as previously described (van der Velden et al., [2021]). A second set of cells was transiently transfected with either mouse GLP‐1 or GLP‐2 receptor. Following the day after transfection, the cells were seeded in white 96‐well plates with a density of 35.000 cells per well. The next day the assay was initiated by washing the cells with HEPES buffered saline (HBS) followed by an incubation step with HBS and 1‐mM 3‐isobutyl‐1‐methylxanthine for 30 min at 37°C. For agonist studies, the ligands were then added and incubated for an additional 30 min at 37°C. To test for antagonistic properties, the cells were first preincubated for 10 min with the antagonist with subsequent addition of the agonist and incubated for an additional 20 min. The HitHunter® cAMP assay (Eurofins DiscoverX, Fremont, USA) was carried out according to the manufacturer's protocol. Luminescence was measured by PerkinElmer™ Envision 2014 Multilabel Reader.
(§2) To facilitate comparisons of assay outputs (cAMP assays), the results (of duplicate measurements) were normalized, with the response to 10 pM of GIP(1‐42) set as 100%. All ligand concentrations are reported as log‐transformed. The IC50 log values can be found in Figure 1. In Figure 3c, we have subtracted glucose levels from baseline to show the net differences in glucose levels in our different treatment groups.
FIGURE 1 In vitro signalling profile of mGIPAnt‐1 on the mouse and human glucose‐dependent insulinotropic polypeptide receptor/(GIPR). COS‐7 cells were transiently transfected with (a) mouse GIPR or (b) human GIPR and assayed for cAMP accumulation. To test for agonism, increasing concentration of the ligand was added. […]
For orientation: cAMP levels reflect the balance of adenylyl cyclase and phosphodiesterase activity.

In experiment [2] the target is T1, mouse GIP receptor. As to the kind of experiment: cAMP accumulation, antagonism of mouse GIP(1‐42) in transfected COS‐7 cells. The experiment is classed as cell-based. The note with it: COS‐7 transiently transfected with mouse GIPR; 10 min preincubation with antagonist, then mouse GIP(1‐42) at 50%–80% of Emax for 20 min; HitHunter cAMP; Hill slope −1.0; n = 5 independent experiments; read-out: IC50, inhibition of mGIP‐induced cAMP accumulation, mouse GIPR. On the procedure:
as §1
To facilitate comparisons of assay outputs (cAMP assays), the results (of duplicate measurements) were normalized, with the response to 10 pM of GIP(1‐42) set as 100%. All ligand concentrations are reported as log‐transformed. The IC50 log values can be found in Figure 1. In Figure 3c, we have subtracted glucose levels from baseline to show the net differences in glucose levels in our different treatment groups. […]
Results are presented as mean ± SE. Data were analysed with one‐way and two‐way analysis of variance (ANOVA) with Tukey's or Sidak multiple comparisons test and Student's unpaired t tests where appropriate. […] For the in vitro data IC50 values were determined by nonlinear regression using GraphPad Prism 9 (San Diego, California, USA). […]

The subject of experiment [3] is Female C57Bl6/J mice. As to the kind of experiment: Intraperitoneal glucose tolerance test, inhibition of exogenous GIP. It counts as in vivo, mouse. The method, then:
To assess the biological activity of mGIPAnt‐1, we performed an intraperitoneal glucose tolerance test. Mice were fasted for 4 h and given either mGIPAnt‐1 ([…]; s.c.) or vehicle at t = −90 min. Group sizes were as follows:‐ Vehicle + Vehicle, n = 10, Vehicle + GIP, n = 12 and mGIPAnt‐1 + GIP, n = 8. Varying group numbers were due to unsuccessful administration of one of the four compounds as confirmed by measurements of plasma concentrations. At t = −10 all mice were given an intraperitoneal (i.p.) injection with dipeptidyl peptidase‐4 (DPP‐4) inhibitor valine pyrrolidide followed by s.c. injection of either 25 nmol·kg^−1 GIP (Synthetic mouse GIP(1‐42) or vehicle. At t = 0 min, mice received an i.p. injection with 0.5‐g·kg^−1 glucose. Blood glucose was measured from the tail vein using a hand‐held glucometer (Accu‐Chek Mobile, Roche, Basel, Switzerland) at t = 0, 10, 30, 45, 60, 120 and 180 min. Retro‐orbital blood samples (50 μl) were taken using EDTA coated glass capillaries (Vitrex, Vasekær, Denmark) at t = 0, 15, 30 and 60, 120 and 180 min and centrifuged at 3500g, 20 min, 4°C. Plasma was transferred into Eppendorf tubes on dry ice and stored at −20°C for later insulin measurements.
as §2

Experiment [4] deals with T2, human GIP receptor (Homo sapiens, UniProt P48546).
T2 construct: host or cells: COS-7
T2 sequence (P48546 22-466): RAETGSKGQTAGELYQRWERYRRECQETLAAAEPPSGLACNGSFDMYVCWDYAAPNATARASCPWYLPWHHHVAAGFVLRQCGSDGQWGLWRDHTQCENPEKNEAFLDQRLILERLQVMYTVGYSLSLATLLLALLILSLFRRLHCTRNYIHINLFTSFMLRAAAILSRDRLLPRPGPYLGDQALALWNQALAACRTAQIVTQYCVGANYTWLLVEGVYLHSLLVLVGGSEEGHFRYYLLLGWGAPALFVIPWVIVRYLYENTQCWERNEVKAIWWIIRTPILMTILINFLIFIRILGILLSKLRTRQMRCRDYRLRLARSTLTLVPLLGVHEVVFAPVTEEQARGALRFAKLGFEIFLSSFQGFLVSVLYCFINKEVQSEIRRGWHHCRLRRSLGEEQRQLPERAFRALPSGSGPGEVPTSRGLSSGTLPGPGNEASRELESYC
The note with it: previously shown, [2016], cited from earlier work. The method, then: The antagonistic properties of mGIPAnt‐1 were determined in vitro in cAMP accumulation before initiation of the in vivo studies in comparison to the naturally occurring […] GIP(3‐30)NH2. The experiments were done on both the human and mouse GIP receptor to examine the translatability between species. To keep the experiments species specific, mGIPAnt‐1 was compared to mouse GIP(3‐30)NH2 (mGIP(3‐30)NH2) on the mouse GIP receptor and human GIP(3‐30)NH2 (hGIP(3‐30)NH2) on the human GIP receptor. We also determined whether mGIPAnt‐1 had any intrinsic activity. Here we observed no activation of the ...

Experiment [5] addresses T3, mouse GLP‐2 receptor (Mus musculus, UniProt Q5IXF8).
T3 construct: host or cells: COS-7
T3 sequence (Q5IXF8 1-512): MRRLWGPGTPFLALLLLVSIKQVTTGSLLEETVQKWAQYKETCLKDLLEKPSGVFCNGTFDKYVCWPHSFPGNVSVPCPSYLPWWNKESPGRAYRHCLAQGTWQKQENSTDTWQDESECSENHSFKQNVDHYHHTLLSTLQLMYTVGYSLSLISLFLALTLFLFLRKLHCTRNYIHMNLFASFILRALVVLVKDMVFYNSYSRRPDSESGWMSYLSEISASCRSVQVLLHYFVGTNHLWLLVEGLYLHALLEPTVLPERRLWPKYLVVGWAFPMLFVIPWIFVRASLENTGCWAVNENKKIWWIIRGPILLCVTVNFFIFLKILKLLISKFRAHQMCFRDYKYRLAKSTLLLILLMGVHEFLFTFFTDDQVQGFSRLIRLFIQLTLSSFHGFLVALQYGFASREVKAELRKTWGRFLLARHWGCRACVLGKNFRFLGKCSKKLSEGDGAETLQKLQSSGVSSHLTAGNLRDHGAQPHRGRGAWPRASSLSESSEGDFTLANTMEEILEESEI
As to the kind of experiment: cAMP accumulation, agonism in transfected COS‐7 cells. The experiment is classed as cell-based. The note with it: increasing concentrations, COS‐7, n = 5. On the procedure:
as §1
FIGURE 2 In vitro signalling profile of mGIPAnt‐1 on the mouse GLP‐1 and GLP‐2 receptor (R). […]

For orientation: pIC50 means the IC50 on a negative log10 scale, so that one unit is a factor of ten. With `CC[C@H](C)[C@H](NC(=O)[C@H](CO)NC(=O)[C@H](Cc1ccc(O)cc1)NC(=O)[C@H](CC(=O)O)NC(=O)[C@H](CO)NC(=O)[C@@H](NC(=O)[C@H](Cc1ccccc1)NC(=O)[C@@H](NC(=O)CNC(=O)[C@@H](N)CCC(=O)O)[C@@H](C)O)[C@@H](C)CC)C(=O)N[C@@H](C)C(=O)N[C@@H](CCSC)C(=O)N[C@@H](CC(=O)O)C(=O)N[C@@H](CCCCN)C(=O)N[C@H](C(=O)N[C@@H](CCCNC(=N)N)C(=O)N[C@@H](CCC(N)=O)C(=O)N[C@@H](CCC(N)=O)C(=O)N[C@@H](CC(=O)O)C(=O)N[C@@H](Cc1ccccc1)C(=O)N[C@H](C(=O)N[C@@H](CC(N)=O)C(=O)N[C@@H](Cc1c[nH]c2ccccc12)C(=O)N[C@@H](CC(C)C)C(=O)N[C@@H](CC(C)C)C(=O)N[C@@H](C)C(=O)N[C@@H](CCC(N)=O)C(=O)N[C@@H](CCCNC(=N)N)C(N)=O)C(C)C)[C@@H](C)CC` [mGIP(3‐30)NH2, mouse GIP(3‐30)NH2, reference compound], the “intrinsic activity (activation of mouse GIP receptor, cAMP)” value in experiment [1] is recorded as “neither did mGIP(3‐30)NH2 activate”. The pIC50 in experiment [2] was 6.09.

For the compound “Synthetic mouse GIP(1‐42) (YAEGTFISDYSIAMDKIRQQDFVNWLLAQRGKKSDWKHNITQ; Gastric inhibitory polypeptide; UniProt P48756 44-85, looked up) [reference compound]”, in experiment [3] (mGIPAnt‐1 25 μmol·kg−1 s.c. t = −90 min, GIP 25 nmol·kg−1 s.c. and val‐pyr t = −10 min, glucose 0.5 g·kg−1 i.p., n = 8–12), the “baseline‐subtracted glucose curve during IPGTT” value is “lowered glucose levels significantly from t = 45 min and onwards”. Further, the “glucose levels relative to baseline late in IPGTT” value in experiment [3] (t = 120 and 180 min, same dosing as glucose curve) was “glucose levels dropped significantly below baseline at t = 120 and t = 180 min”. Moreover, in experiment [3] (vehicle + GIP 25 nmol·kg−1 versus vehicle + vehicle and versus mGIPAnt‐1 + GIP), the “incremental area under the glucose curve (iAUC), IPGTT” value is given as “significantly different”.

For the compound “human GIP(3‐30)NH2 (EGTFISDYSIAMDKIHQQDFVNWLLAQK-NH2; UniProt P09681 54-81, looked up, fragment) [hGIP(3‐30)NH2]”, the “intrinsic activity (activation of human GIP receptor)” value in experiment [4] (ref Gabe et al., [2018], Gasbjerg et al., [2017], Hansen et al.) is recorded as “no activation”. For the same compound, in experiment [4] (ref Hansen et al., read-out: IC50, antagonism of human GIPR), the pIC50 is 7.92.

Take “mGLP‐2: mouse GLP‐2, control agonist at the mouse GLP‐2 receptor (HADGSFSDEMSTILDNLATRDFINWLIQTKITD; Glucagon-like peptide 2; UniProt P55095 146-178, looked up) [reference compound]”: the “activation of mouse GLP‐2 receptor (cAMP)” value in experiment [5] is recorded as “shown to activate their receptors”.
